US9987294B2, “Mitochondria-targeted anti-tumor agents” (University of Massachusetts, priority 2007, dated 2018)
“Also recorded” adds a separate entry of the source. Counter-ions that a name gives are not always drawn. Where no end group is shown, it is not given here. [ ]: non-standard residue; d: D form.

Key:
[1] = system: normal human fibroblast cell types (WS-1, HGF, HFF); assay: Cell viability by MTT, normal human fibroblast cell types; conditions: concentrations comparable to those killing tumor cells
Method: Changes in protein expression in the various experiments of siRNA targeting were assessed by Western blotting. For analysis of TRAP-1-directed cytoprotection, primary nontransformed human fibroblasts HFF and WS-1 were transfected with control pcDNA3 or TRAP-1 cDNA by lipofectamine for 24 hours, exposed to increasing concentrations (0-1 μM) of the cell death stimulus staurosporine (STS), and analyzed for cell viability after additional 24 hours incubation by MTT. For analysis of apoptosis, p53+/+ or p53−/−HCT116 cells were treated with control or ANT-GA (100 μM), and analyzed for DEVDase activity (CaspaTag) and propidium iodide staining by simultaneous multiparametric flow cytometry, as described (Dohi et al., J. Clin. Invest. 114(8):1117-27, (2004); Plescia et al., Cancer Cell, 7:457-468, (2005)).

[2] = system: tumor mitochondria; assay: Cytochrome c release from drug-treated isolated tumor mitochondria; format: biochemical; conditions: 3 hours (FIG. 16D)
Method: Tumor cell types were treated with controls or the various Hsp90 antagonists, and cytosolic extracts were harvested at increasing time intervals between 5-30 minutes and analyzed by Western blotting. For experiments in a cell-free system, purified mitochondria (20 μg) were suspended in 500 μl of SB buffer (0.2 M sucrose, 10 mM Tris-MOPS, pH 7.4, 5 mM succinate, 1 mM sodium phosphate, 10 μM EGTA-Tris, and 2 μM rotenone). […] At the end of each incubation reaction, mitochondria and supernatants were separated by centrifugation at 6,000×g for 10 minutes, and analyzed by Western blotting.
(§1) The fluorescence intensity after treatment with 2 mM CaCl2 corresponded to a fully depolarized state. Alternatively, H460 cells were labeled with the fluorescent dye JC-1 (Molecular Probes), and analyzed for changes in red/green (F1-2/F1-1) fluorescence ratio after treatment with the various agents, by multiparametric flow cytometry. Cytochrome c content in pellets or supernatants of drug-treated isolated mitochondria was determined by Western blotting.

[3] = system: isolated tumor mitochondria; assay: Inner membrane potential of TMRM-loaded tumor mitochondria; format: biochemical
Method: as §1

[4] = system: H460 lung adenocarcinoma xenograft tumors; assay: Xenograft tumor growth, H460; format: in vivo, mice; conditions: i.p.; G4 and 17-AAG 2-3 mg/kg twice daily, G1 30-50 mg/Kg daily, TPP 10 mg/Kg daily
Method: To create the models used in this example, HL60 (10×10^6) or H460 (4×10^6) cells suspended in sterile PBS (200 μl) were injected subcutaneously into both flanks of 10 week-old CB17 SCID/beige (Taconic Farms) immunocompromised female mice. Alternatively, MDA-MB-231 cells (5×10^6) suspended in 200 μl of 50% Matrigel (BD Biosciences) were used for subcutaneous injection in CB17 SCID/beige mice. When superficial tumors reached volumes of 100-150 mm^3, animals were randomized in two groups (2 tumors/mouse, 3 animals/group), and treated with vehicle (DMSO) or Gamitrinib dissolved in 20% Cremophor EL (Sigma) in PBS by intraperitoneal (i.p.) injection. Gamitrinib-G4 was used as sterile i.p. injections with the following schedules: HL60 xenografts, 2 mg/Kg twice daily; H460 xenografts, 2 mg/kg twice daily for d 0, 2.5 mg/kg twice daily for d 1, 3.0 mg/kg twice daily for the duration of treatment; MDA-MB-231 xenografts, 2 mg/Kg twice daily for d 0-2, 2.5 mg/Kg twice daily for d 3-5, and 3 mg/Kg twice daily throughout the rest of the treatment. 17-AAG was dissolved in 20% Cremophor EL and used as systemic i.p. injections with the same dose-escalating regimen as Gamitrinib-G4 in H460 xenograft studies. Gamitrinib-G1 was used with following schedules: 30 mg/Kg daily (d 0-2), and 50 mg/Kg daily for the rest of treatment. Gamitrinib-TPP was used as i.p. injections at 10 mg/Kg daily throughout the duration of the experiment. Tumor measurements were taken daily with a caliper, and tumor volume was calculated with the formula ([length in millimeters]×[width in millimeters]^2)/2. Mice in the various treatment groups were weighed at the beginning and at the end of each experiment.

[5] = system: lung adenocarcinoma H460 cells; assay: Cell viability by MTT, H460; format: cell-based, human; conditions: 3 hour exposure
Method: (§2) Modulation of cell viability was determined by MTT (Kang et al., “Regulation of tumor cell mitochondrial homeostasis by an organelle-specific Hsp90 chaperone network,” Cell, 131:257-270 (2007)). For determination of apoptosis, cells were analyzed for caspase activity (DEVDase activity) and plasma membrane integrity (propidium iodide) using CaspaTag (Intergen, Burlington, Mass.), by multiparametric flow cytometry (Kang et al., “Regulation of tumor cell mitochondrial homeostasis by an organelle-specific Hsp90 chaperone network,” Cell, 131:257-270 (2007)).

[6] = system: breast adenocarcinoma SKBr3 cells; assay: Metabolic activity by MTT, SKBr3; format: cell-based; conditions: 10 μM; by 48 hours and throughout a 96-hours interval
Method: as §2

[7] = system: TRAP-1 and Hsp90; assay: Fractionation of Raji mitochondrial extracts over Shepherdin-Sepharose or scrambled peptidomimetic-Sepharose; format: binding, human; conditions: coupled to Sepharose beads, Western blotting
[8] = system: Ras-transformed NIH3T3 mitochondria; assay: Mitochondrial membrane potential of TMRM-loaded isolated mitochondria; format: biochemical
Method: Raji cells were treated with Shepherdin or control scrambled peptidomimetic (100 μM) or 17-AAG (5 μM), loaded with the mitochondrial membrane potential-sensitive fluorescent dye JC-1, and analyzed for changes in green/red fluorescence ratio by flow cytometry. For experiments in a cell-free system, purified mitochondria isolated from primary normal cells, various tumor cells types, or normal mouse organs were suspended in SB buffer. […] For these experiments, TMRM-loaded mitochondria in SB buffer were allowed to reach stable fluorescence, which was set as fully polarized state (maximum membrane potential). The fluorescence intensity after treatment with 2 mM CaCl2 was set as minimum membrane potential (fully depolarized state). Changes in fluorescence intensity after each treatment were plotted as a ratio between maximum and minimum membrane potential.

CC[C@H](C)[C@H](NC(=O)[C@H](CCCCN)NC(=O)[C@@H](NC(=O)[C@H](CCC(N)=O)NC(=O)[C@@H](N)CCCNC(=N)N)[C@@H](C)CC)C(=O)N[C@@H](Cc1c[nH]c2ccccc12)C(=O)N[C@@H](Cc1ccccc1)C(=O)N[C@@H](CCC(N)=O)C(=O)N[C@@H](CC(N)=O)C(=O)N[C@@H](CCCNC(=N)N)C(=O)N[C@@H](CCCNC(=N)N)C(=O)N[C@@H](CCSC)C(=O)N[C@@H](CCCCN)C(=O)N[C@@H](Cc1c[nH]c2ccccc12)C(=O)N[C@@H](CCCCN)C(=O)N[C@@H](CCCCN)C(=O)N[C@@H](CSC1CC(=O)N(CCCC(=O)NCCCNC2=C3C[C@@H](C)C[C@H](OC)[C@H](O)[C@@H](C)/C=C(\C)[C@H](OC(N)=O)[C@@H](OC)/C=C\C=C(/C)C(=O)NC(=CC2=O)C3=O)C1=O)C(N)=O (some centres unmarked) [ANT-GA]
viability of normal human fibroblast cell types [1]: none of the compounds affected the viability of various normal human fibroblast cell types

COc1c(C)cnc(Cn2cnc3c(Cl)nc(N)nc32)c1C [BIIB021]
cytochrome c release from mitochondria [2]: had no effect on cytochrome c release

CO[C@H]1/C=C\C=C(/C)C(=O)NC2=CC(=O)C(NCCN(C)C)=C(C[C@@H](C)C[C@H](OC)[C@H](O)[C@@H](C)/C=C(\C)[C@@H]1OC(N)=O)C2=O [DMAG, 17-(dimethylaminoethylamino)-17-demethoxygeldanamycin]
mitochondrial inner membrane potential [3]: did not affect mitochondrial membrane potential

COC1=C2C[C@@H](C)C[C@H](OC)[C@H](O)[C@@H](C)/C=C(\C)[C@H](OC(N)=O)[C@@H](OC)/C=C\C=C(/C)C(=O)NC(=CC1=O)C2=O [GA, geldanamycin]
viability of normal human fibroblast cell types [1]: none of the compounds affected the viability of various normal human fibroblast cell types

CO[C@H]1/C=C\C=C(/C)C(=O)NC2=CC(=O)C(NCCCNC(=O)CCCN3C(=O)CC(SC[C@H]4CCN5CC[C@H](CO[Si](c6ccccc6)(c6ccccc6)C(C)(C)C)N=C5N4)C3=O)=C(C[C@@H](C)C[C@H](OC)[C@H](O)[C@@H](C)/C=C(\C)[C@@H]1OC(N)=O)C2=O (stereo partly drawn) [Gamitrinib-G1, (4E,6Z,8S,9S,10E,12S,13R,14S,16R)-19-(3-(4-(3-(((2R,8R)-8-((tert-butyldiphenylsilyloxy)methyl)-2,3,4,6,7,8-hexahydro-1H-pyrimido[1,2-a]pyrimidin-2-yl)methylthio)-2,5-dioxopyrrolidin-1-yl)butanamido)propylamino)-13-hydroxy-8,14-dimethoxy-4,10,12,16-tetramethyl-3,20,22-trioxo-2-azabicyclo[16.3.1]docosa-1(21),4,6,10,18-pentaen-9-yl carbamate, hexafluorophosphate salt]
tumor growth [4]: also inhibited lung cancer growth in vivo | cell viability [5]: had no effect

CO[C@H]1/C=C\C=C(/C)C(=O)NC2=CC(=O)C(NCCCNC(=O)CCCN3C(=O)CC(SC[C@H]4CCN5CC[C@H](CSC[C@H]6CCN7CC[C@H](CO[Si](c8ccccc8)(c8ccccc8)C(C)(C)C)N=C7N6)N=C5N4)C3=O)=C(C[C@@H](C)C[C@H](OC)[C@H](O)[C@@H](C)/C=C(\C)[C@@H]1OC(N)=O)C2=O (some centres unmarked) [Gamitrinib-G2]
cell viability [5]: had intermediate activity

CO[C@H]1/C=C\C=C(/C)C(=O)NC2=CC(=O)C(NCCCNC(=O)CCCN3C(=O)CC(SC[C@H]4CCN5CC[C@H](CSC[C@H]6CCN7CC[C@H](CSC[C@H]8CCN9CC[C@H](CO[Si](c%10ccccc%10)(c%10ccccc%10)C(C)(C)C)N=C9N8)N=C7N6)N=C5N4)C3=O)=C(C[C@@H](C)C[C@H](OC)[C@H](O)[C@@H](C)/C=C(\C)[C@@H]1OC(N)=O)C2=O.F[P-](F)(F)(F)(F)F.F[P-](F)(F)(F)(F)F.F[P-](F)(F)(F)(F)F (some centres unmarked) [Gamitrinib-G3]
cell viability [5]: complete loss of cell viability | IC50 ([5]; read-out: IC50, loss of cell viability): ~500 nM

CO[C@H]1/C=C\C=C(/C)C(=O)NC2=CC(=O)C(NCCCCCC[P+](c3ccccc3)(c3ccccc3)c3ccccc3)=C(C[C@@H](C)C[C@H](OC)[C@H](O)[C@@H](C)/C=C(\C)[C@@H]1OC(N)=O)C2=O [Gamitrinib-TPP, (4E,6Z,8S,9S,10E,12S,13R,14S,16R)-19-(6-(triphenylphosphonio)hexylamino)-13-hydroxy-8,14-dimethoxy-4,10,12,16-tetramethyl-3,20,22-trioxo-2-azabicyclo[16.3.1]docosa-1(21),4,6,10,18-pentaen-9-yl carbamate hexafluorophosphate]
metabolic activity [6]: comparably reduced metabolic activity | mitochondrial inner membrane potential [3]: promptly depolarized tumor mitochondria | tumor growth [4]: also inhibited lung cancer growth in vivo | cell viability [5]: had intermediate activity

C=CCNc1c(O)cc2c(O)c1C[C@@H](C)C[C@H](OC)[C@H](O)[C@@H](C)/C=C(\C)[C@H](OC(N)=O)[C@@H](OC)/C=C\C=C(/C)C(=O)N2 [IPI-504]
cytochrome c release from mitochondria [2]: had no effect on cytochrome c release

CCNC(=O)c1noc(-c2cc(C(C)C)c(O)cc2O)c1-c1ccc(CN2CCOCC2)cc1 [NVP-AUY922]
cytochrome c release from mitochondria [2]: had no effect on cytochrome c release

Sheph: Shepherdin lacking the Antennapedia cell-penetrating sequence ([dL][dF][dA][dC]G[dS][dS][dH][dK])
association of Hsp90 and TRAP-1 with immobilized peptidomimetic [7]: specific elution of both TRAP-1 and Hsp90; also recorded: Hsp90 and TRAP-1 are bound by Shepherdin-Sepharose | membrane potential of mitochondria [8]: induces loss of mitochondrial membrane potential in transformed cells
